Data from US9334278B2, “Pyrrolo[2,3-B]pyrazines as SYK inhibitors” (Hoffmann-La Roche Inc., priority 2012, dated 2016).
Where two headings read alike, the source gives them in different places.

Legend:
[1] = target: recombinant human SYK360-635 (Spleen Tyrosine Kinase) (Homo sapiens (Human), UniProt P43405); assay: SYK kinase assay (33P filtration, IC50 of SYK inhibition)
Experimental: Determination of IC50 of Spleen Tyrosine Kinase (SYK) inhibition:
SYK kinase assay is a standard kinase assay adapted to a 96 well plate format. This assay is performed in 96-well format for IC50 determination with 8 samples which represented 10 half log dilutions and a 40 μL reaction volume. The assay measures the incorporation of radiolabeled ^33P γATP into an N-terminally biotinylated peptide substrate, derived from naturally occurring phosphoacceptor consensus sequence (Biotin-11aa DY*E). Phosphorylated products were detected upon termination of reactions with EDTA and the addition of Streptavidin coated beads.
BSA: Bovine Serum Albumin Fraction V, fatty acid free (Roche Diagnostics GmbH, Cat. No. 9100221) diluted to a final concentration of 0.1%
Assay Dilution Buffer (ADB): 50 mM HEPES, 0.1 mM EGTA, 0.1 mM Na Vanadate, 0.1 mM (3-glycerophosphate, 10 mM MgCl2, 1 mM DTT, 0.1% BSA, pH 7.5
Bead wash buffer: 10 g/L PBS (Phosphate buffered saline) with 2M NaCl+1% phosphoric acid.
DMSO and the mixture was incubated for 10 min at RT.
The kinase reaction was initiated by the addition of 10 μL 4× substrate cocktail containing the DYE peptide substrate [0 or 5 μM], ATP [20 μM] and ^33PγATP [2 μCi/r×n]. After incubation at 30° C. for 15 min, the reaction was terminated by the transfer of 25 μL of the reaction sample to a 96 well 0.65 μm Millipore MADVNOB membrane/plate containing 200 μL 5 mM EDTA and 20% Streptavidine coated beads in PBS.
The unbound radionucleotides were washed under vacuum with 3×250 μL 2M NaCl; 2×250 μL 2M NaCl+1% phosphoric acid; 1×250 μL H2O. After the last wash membrane/plates were transferred to an adaptor plate, heat dried for 15 min at 60° C., and 50 μL scintillation cocktail was added to each well and 4 h later the amount of radioactivity was counted in a top counter.

[2] = test system: B cell CD69 up-regulation in human whole blood; assay: B Cell CD69 Up-Regulation Assay in Human Whole Blood; format: cell-based; conditions: anti-human IgM 50 μg/mL for 20 h, CD69hi CD20+ B cells
Experimental: B Cell CD69 Up-Regulation Assay in Human Whole Blood
Human Blood was collected from healthy volunteers into Vacutainers (BD Biosciences, San Jose, Calif.) containing sodium heparin. Test compound was suspended in DMSO and nine half-log serial dilutions were made. The concentration of […] in the assay was 0.5%. 100 μL whole blood was pre-incubated with compound for 30 min and then stimulated with goat F(ab′)2 anti-human IgM (50 μg/mL, Southern Biotech) for 20 h. At the end of the 20 hour incubation, samples were incubated with fluorochrome-conjugated antibodies, PE mouse anti-human CD20 and APC Mouse anti-human CD69 (BD Biosciences), for 30 minutes. Samples were then lysed with Lyse solution (BD) and washed with PBS containing 2% fetal bovine serum (FBS). Fluorescent signals were acquired on flow cytometer LSR II (BD) and data were analyzed by Flow Jo. The percentage of activated (CD69hi) B-cell lymphocytes (CD20+) were determined using un-stimulated (negative control) and stimulated (positive control) wells as reference guidelines. The percentage inhibition was calculated and an IC50 curve was constructed using GraphPad Prism software with sigmoidal curve fitting.

[3] = test system: Human B cell lymphoma cell line Ramos; assay: Ramos Calcium Influx FLIPR Assay; format: cell-based; conditions: Ramos cells, anti-human IgM 10 μg/mL stimulation, read-out: RAMOS_IC50
Experimental: Ramos Calcium Influx FLIPR Assay
Human B cell lymphoma cell line Ramos was cultivated in RPMI-1640 with 10% Fetal Bovine Serum (Invitrogen). Cells were seeded into assay plate and loaded with calcium dye by adding 30 μl of dye loading buffer according to manufacturer's instruction (Beckton Dickinson Calcium Kit, Cat#80500). The cells were then treated with serial diluted compounds for 30 min before stimulation. Baseline fluorescence was recorded for about 20 seconds followed by stimulation with mouse anti-human IgM (10 μg/mL, clone M2E6, Antibody Solutions Inc.) for Ramos cells, and record of the maximal fluorescent counts in each well. Maximal counts divided by baseline counts, defined as fold change from baseline for each well, was used for IC50 calculation.

[4] = read-out: ENZYME_FILTRATION_IC50, SYK 0.5 nM, ATP 20 μM, 33P filtration

IC50 [1, 4] [nM]	IC50 [2] [nM]	IC50 [3] [nM]	IC50 [1] [nM]	SMILES
8.5	627	122	–	Cc1ccc(Nc2cnc3[nH]cc(C(=O)NC(C)(C)C)c3n2)nc1 [Compound I-1, N-tert-butyl-2-(5-methylpyridin-2-ylamino)-5H-pyrrolo[2,3-b]pyrazine-7-carboxamide]
27.4	535	245	–	Cc1ccc(Nc2cnc3[nH]cc(C(=O)NC(C)(C)CO)c3n2)nc1 [Compound I-2, N-(1-hydroxy-2-methylpropan-2-yl)-2-(5-methylpyridin-2-ylamino)-5H-pyrrolo[2,3-b]pyrazine-7-carboxamide]
21.1	204	146	–	Cn1ccc(Nc2cnc3[nH]cc(C(=O)NC(C)(C)C)c3n2)n1 [Compound I-3, N-tert-butyl-2-(1-methyl-1H-pyrazol-3-ylamino)-5H-pyrrolo[2,3-b]pyrazine-7-carboxamide]
42.8	918	258	–	Cc1ccc(Nc2cnc3[nH]cc(C(=O)NC(C)C)c3n2)nc1 [Compound I-4, N-isopropyl-2-(5-methylpyridin-2-ylamino)-5H-pyrrolo[2,3-b]pyrazine-7-carboxamide]
13.7	75.8	110	–	Cn1cc(Nc2cnc3[nH]cc(C(=O)NC(C)(C)C)c3n2)cn1 [Compound I-5, N-tert-butyl-2-(1-methyl-1H-pyrazol-4-ylamino)-5H-pyrrolo[2,3-b]pyrazine-7-carboxamide]
17.1	430	115	–	Cc1ccc(Nc2cnc3[nH]cc(C(=O)NC(C)(C)C)c3n2)cn1 [Compound I-6, N-tert-butyl-2-(6-methylpyridin-3-ylamino)-5H-pyrrolo[2,3-b]pyrazine-7-carboxamide]
164	258	283	–	Cc1ncc(Nc2cnc3[nH]cc(C(=O)NC(C)(C)C)c3n2)cn1 [Compound I-7, N-tert-butyl-2-(2-methylpyrimidin-5-ylamino)-5H-pyrrolo[2,3-b]pyrazine-7-carboxamide]
51.3	422	334	–	Cc1cnc(Nc2cnc3[nH]cc(C(=O)NC(C)(C)C)c3n2)cn1 [Compound I-8, N-tert-butyl-2-(5-methylpyrazin-2-ylamino)-5H-pyrrolo[2,3-b]pyrazine-7-carboxamide]
15.5	343	93.1	–	Cc1cc(Nc2cnc3[nH]cc(C(=O)NC(C)(C)C)c3n2)[nH]n1 [Compound I-9, N-tert-butyl-2-(3-methyl-1H-pyrazol-5-ylamino)-5H-pyrrolo[2,3-b]pyrazine-7-carboxamide]
16.3	–	64.5	–	CC(C)(C)NC(=O)c1c[nH]c2ncc(Nc3cccnc3)nc12 [Compound I-10, N-tert-butyl-2-(pyridin-3-ylamino)-5H-pyrrolo[2,3-b]pyrazine-7-carboxamide]
10.9	–	1330	–	Cc1ccc(Nc2cnc3[nH]cc(C(=O)NC(C)(C)C)c3n2)c(F)c1 [Compound I-11, N-tert-butyl-2-(2-fluoro-4-methylphenylamino)-5H-pyrrolo[2,3-b]pyrazine-7-carboxamide]
3.2	2160	76.7	–	Cc1ccc(Nc2cnc3[nH]cc(C(=O)NC(C)(C)C)c3n2)cc1 [Compound I-12, N-tert-butyl-2-(p-tolylamino)-5H-pyrrolo[2,3-b]pyrazine-7-carboxamide]
12.8	190	69	–	CC(C)(C)NC(=O)c1c[nH]c2ncc(Nc3cccc(S(C)(=O)=O)c3)nc12 [Compound I-13, N-tert-butyl-2-(3-(methylsulfonyl)phenylamino)-5H-pyrrolo[2,3-b]pyrazine-7-carboxamide]
35.9	184	101	–	CCn1cc(Nc2cnc3[nH]cc(C(=O)NC(C)(C)C)c3n2)cn1 [Compound I-14, N-tert-butyl-2-(1-ethyl-1H-pyrazol-4-ylamino)-5H-pyrrolo[2,3-b]pyrazine-7-carboxamide]
934	6940	–	–	CN(C)C(=O)c1ccccc1Nc1cnc2[nH]cc(C(=O)NC(C)(C)C)c2n1 [Compound I-15, N-tert-butyl-2-(2-(dimethylcarbamoyl)phenylamino)-5H-pyrrolo[2,3-b]pyrazine-7-carboxamide]
92.4	375	168	–	Cc1c(Nc2cnc3[nH]cc(C(=O)NC(C)(C)C)c3n2)cnn1C [Compound I-16, N-tert-butyl-2-(1,5-dimethyl-1H-pyrazol-4-ylamino)-5H-pyrrolo[2,3-b]pyrazine-7-carboxamide]
49.9	193	207	–	Cn1cc(Nc2cnc3[nH]cc(C(=O)NC(C)(C)CO)c3n2)cn1 [Compound I-17, N-(1-hydroxy-2-methylpropan-2-yl)-2-(1-methyl-1H-pyrazol-4-ylamino)-5H-pyrrolo[2,3-b]pyrazine-7-carboxamide]
2	125	78.9	–	Cc1cc(Nc2cnc3[nH]cc(C(=O)NC(C)(C)C)c3n2)sn1 [Compound I-18, N-tert-butyl-2-(3-methylisothiazol-5-ylamino)-5H-pyrrolo[2,3-b]pyrazine-7-carboxamide]
117	–	518	–	Cc1ccc(Nc2cnc3[nH]cc(C(=O)NC(C)(C)C)c3n2)c(C)c1 [Compound I-19, N-tert-butyl-2-(2,4-dimethylphenylamino)-5H-pyrrolo[2,3-b]pyrazine-7-carboxamide]
30	506	338	–	CC(C)(C)NC(=O)c1c[nH]c2ncc(Nc3ccc(S(C)(=O)=O)cc3)nc12 [Compound I-20, N-tert-butyl-2-(4-(methylsulfonyl)phenylamino)-5H-pyrrolo[2,3-b]pyrazine-7-carboxamide]
1900	> 50000	4800	–	CN(c1cccnc1)c1cnc2[nH]cc(C(=O)NC(C)(C)C)c2n1 [Compound I-21, N-tert-butyl-2-(methyl(pyridin-3-yl)amino)-5H-pyrrolo[2,3-b]pyrazine-7-carboxamide]
5.6	–	216	–	CC(C)(CO)NC(=O)c1c[nH]c2ncc(Nc3cccnc3)nc12 [Compound I-26, N-(1-hydroxy-2-methylpropan-2-yl)-2-(pyridin-3-ylamino)-5H-pyrrolo[2,3-b]pyrazine-7-carboxamide]
121	–	806	–	CC(C)(C)NC(=O)c1c[nH]c2ncc(Nc3ccnc(S(C)(=O)=O)c3)nc12 [Compound I-28, N-tert-butyl-2-(2-(methylsulfonyl)pyridin-4-ylamino)-5H-pyrrolo[2,3-b]pyrazine-7-carboxamide]
228	–	642	–	CC(C)(C)NC(=O)c1c[nH]c2ncc(Nc3cncc(S(C)(=O)=O)c3)nc12 [Compound I-29, N-tert-butyl-2-(5-(methylsulfonyl)pyridin-3-ylamino)-5H-pyrrolo[2,3-b]pyrazine-7-carboxamide]
17.8	–	251	–	Cc1nsc(Nc2cnc3[nH]cc(C(=O)NC(C)(C)C)c3n2)n1 [Compound I-31, N-tert-butyl-2-(3-methyl-1,2,4-thiadiazol-5-ylamino)-5H-pyrrolo[2,3-b]pyrazine-7-carboxamide]
–	5120	2170	–	Cc1nc2[nH]cc(C(=O)NC(C)(C)C)c2nc1Nc1cnn(C)c1 [Compound I-34, 3-Methyl-2-(1-methyl-1H-pyrazol-4-ylamino)-5H-pyrrolo[2,3-b]pyrazine-7-carboxylic acid tert-butylamide]
2940	–	–	–	Cc1nc2[nH]cc(C(=O)NC(C)(C)C)c2nc1Nc1cccc(S(C)(=O)=O)c1 [Compound I-35, 2-(3-Methanesulfonyl-phenylamino)-3-methyl-5H-pyrrolo[2,3-b]pyrazine-7-carboxylic acid tert-butylamide]
–	–	37.7	4.8	[2H]c1c([2H])c([2H])c(Nc2cnc3[nH]cc(C(=O)NC(C)(C)C)c3n2)c([2H])c1[2H] [Compound I-37, 2-Phenylamino(D5)-5H-pyrrolo[2,3-b]pyrazine-7-carboxylic acid tert-butylamide]
640	–	14900	–	Cc1cc(Nc2nc3c(C(=O)NC(C)(C)C)c[nH]c3nc2Cl)sn1 [Compound I-38, N-tert-butyl-3-chloro-2-(3-methylisothiazol-5-ylamino)-5H-pyrrolo[2,3-b]pyrazine-7-carboxamide]
